Data: ChEMBL document CHEMBL4342522 (J Med Chem, 2020)

Tests used:
SKM-1 = assay: Antiproliferative activity against human SKM1 cells assessed as reduction in cell viability after 5 days by CellTiter-Glo assay; type: functional, cell-based; settings: SKM-1, 120 h
[1] = Unbound hepatic clearance in human liver microsomes; type: ADME, Microsome
[2] = target: T1, Bromodomain-containing protein 4 (Homo sapiens, UniProt O60885); assay: biochemical; type: cell-based
Description: Inhibition of human N-terminal His6 tagged BRD4 BD1 (57 to 168) residues expressed in Escherichia coli BL21(DE3) cells after 1 hr by TR-FRET assay

[3] = Unbound hepatic clearance in rat liver microsomes; type: ADME, Microsome
[4] = target: T1, Bromodomain-containing protein 4; assay: Inhibition of human N-terminal His6 tagged BRD4 BD2 (352 to 457) residues expressed in Escherichia coli BL21(DE3) cells after 1 hr by TR-FRET assay
NCI-H1299 = assay: Antiproliferative activity against human H1299 cells assessed as reduction in cell viability after 5 days by CellTiter-Glo assay; type: functional, cell-based; settings: NCI-H1299, 120 h
[5] = Unbound hepatic clearance in mouse liver microsomes; type: ADME, Microsome
[6] = Permeability in dog MDCK cells by PAMPA; type: ADME, cell-based, Canis lupus familiaris; settings: read-out: permeability

| Compound | IC50 (SKM-1) | CL free [1] | Ki [2] | CL free [3] | Ki [4] | IC50 (NCI-H1299) | CL free [5] | Papp [6] |
| --- | --- | --- | --- | --- | --- | --- | --- | --- |
| CCNC(=O)c1cc2c(-c3cc(NS(=O)(=O)CC)ccc3Oc3c(C)cccc3C)cn(C)c(=O)c2[nH]1 | 1.7 nM | 183 mL/min/kg | 17 nM | 14700 mL/min/kg | 0.8 nM | 300 nM | 1320 mL/min/kg | 0.22 ×10⁻⁶ cm/s |
| CCNC(=O)c1cc2c(-c3cc(C4(O)CCOCC4)ccc3Oc3c(C)cc(F)cc3C)cn(C)c(=O)c2[nH]1 | 6.7 nM | 8670 mL/min/kg | 300 nM | 817 mL/min/kg | 1.2 nM | 2100 nM | 1670 mL/min/kg | 1.47 ×10⁻⁶ cm/s |
| CNC(=O)c1cc2c(-c3cc(C(C)(C)O)ccc3Oc3c(C)cc(F)cc3C)cn(C)c(=O)c2[nH]1 | 13 nM | 400 mL/min/kg | 140 nM | 167 mL/min/kg | 1 nM | 1200 nM | 550 mL/min/kg | 0.55 ×10⁻⁶ cm/s |
| Cc1cccc(C)c1Oc1ccc(C(C)(C)O)cc1-c1cn(C)c(=O)c2[nH]c(C(=O)NC(C)(C)C)cc12 | 14 nM | 783 mL/min/kg | 220 nM | 3000 mL/min/kg | 1.1 nM | 1400 nM | 4330 mL/min/kg | 1.26 ×10⁻⁶ cm/s |
| Cc1cc(F)cc(C)c1Oc1ccc(C(C)(C)O)cc1-c1cn(C)c(=O)c2[nH]c(C(=O)NC3CC3)cc12 | 6.2 nM | 800 mL/min/kg | 230 nM | 333 mL/min/kg | 0.5 nM | 1900 nM | 3330 mL/min/kg | 1.13 ×10⁻⁶ cm/s |
| CCNC(=O)c1cc2c(-c3cc(S(=O)(=O)CC)ccc3Oc3ccc(F)cc3F)cn(C)c(=O)c2[nH]1 | 31 nM | 50 mL/min/kg | 6.6 nM | 188 mL/min/kg | 0.7 nM | 110 nM | < 103 mL/min/kg | 3.18 ×10⁻⁶ cm/s |
| CCNC(=O)c1cc2c(-c3cc(S(=O)(=O)CC)ccc3Oc3cc(C)cc(C)c3)cn(C)c(=O)c2[nH]1 | 2.6 nM | 533 mL/min/kg | 8.3 nM | 1620 mL/min/kg | 0.7 nM | 94 nM | 1600 mL/min/kg | 3.1 ×10⁻⁶ cm/s |
| CCNC(=O)c1cc2c(-c3cc(S(=O)(=O)CC)ccc3Oc3ccccc3C)cn(C)c(=O)c2[nH]1 | 3.3 nM | 142 mL/min/kg | 8.4 nM | – | 0.8 nM | 95 nM | 1100 mL/min/kg | 3.68 ×10⁻⁶ cm/s |
| CCNC(=O)c1cc2c(-c3cc(S(=O)(=O)CC)ccc3Oc3c(C)cccc3Cl)cn(C)c(=O)c2[nH]1 | 6.2 nM | 255 mL/min/kg | 30 nM | 2120 mL/min/kg | 0.9 nM | 670 nM | – | 2.73 ×10⁻⁶ cm/s |
| CCNC(=O)c1cc2c(-c3cc(C4(O)COC4)ccc3Oc3c(C)cc(F)cc3C)cn(C)c(=O)c2[nH]1 | 24 nM | 350 mL/min/kg | – | 267 mL/min/kg | 1.1 nM | 2700 nM | 533 mL/min/kg | 1.66 ×10⁻⁶ cm/s |
| CCNC(=O)c1cc2c(-c3cc(S(=O)(=O)CC)ccc3Oc3c(C)cccc3F)cn(C)c(=O)c2[nH]1 | 2.5 nM | 150 mL/min/kg | 13 nM | 2530 mL/min/kg | 0.9 nM | 260 nM | – | 15.4 ×10⁻⁶ cm/s |
| Cc1cc(F)cc(C)c1Oc1ccc(C(C)(C)O)cc1-c1cn(C)c(=O)c2[nH]c(C(=O)NC(C)(C)C)cc12 | 25 nM | 2170 mL/min/kg | 310 nM | 1450 mL/min/kg | 1.3 nM | 1500 nM | 8670 mL/min/kg | – |
| Cc1cc(F)cc(C)c1Oc1ccc(C(C)(C)O)cc1-c1cn(C)c(=O)c2[nH]c(C(=O)NC3(C)CC3(F)F)cc12 (centres undefined) | 66 nM | 1120 mL/min/kg | 780 nM | 1400 mL/min/kg | 2 nM | 2900 nM | 3500 mL/min/kg | 0.76 ×10⁻⁶ cm/s |
